Experimental data: publication PMC3724809, “Analysis of the Interaction Interfaces of the N-Terminal Domain from Pseudomonas aeruginosa MutL” (PLoS ONE, 2013)

Legend:
[1] = target: T1, PaNTD (P. aeruginosa MutL N-terminal domain) (Pseudomonas aeruginosa, UniProt Q9HUL8); assay: size-exclusion chromatography, nucleotide-induced dimerization; type: binding; details: 5 mM MgCl2, 150 mM KCl, 20 mM Tris-HCl pH 7.9, room temperature
T1 sequence (Q9HUL8 1-339): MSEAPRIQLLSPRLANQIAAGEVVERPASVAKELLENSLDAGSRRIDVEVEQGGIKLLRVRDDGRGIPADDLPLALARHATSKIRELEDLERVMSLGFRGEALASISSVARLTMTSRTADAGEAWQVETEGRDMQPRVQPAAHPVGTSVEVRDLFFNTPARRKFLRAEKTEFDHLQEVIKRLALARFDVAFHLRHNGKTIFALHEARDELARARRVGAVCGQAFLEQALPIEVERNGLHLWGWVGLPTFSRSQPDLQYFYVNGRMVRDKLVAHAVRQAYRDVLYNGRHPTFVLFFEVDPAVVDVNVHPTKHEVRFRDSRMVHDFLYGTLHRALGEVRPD

[2] = target: T2, EcNTD (E. coli MutL N-terminal domain, LN40) (Escherichia coli, UniProt P23367); assay: DSS chemical cross-linking, nucleotide-induced dimerization, SDS-PAGE; type: binding; details: 1 mM AMPPNP, 5 mM MgCl2, 150 mM KCl, 20 mM HEPES pH 7.4, 4 °C
T2 sequence (P23367 1-342): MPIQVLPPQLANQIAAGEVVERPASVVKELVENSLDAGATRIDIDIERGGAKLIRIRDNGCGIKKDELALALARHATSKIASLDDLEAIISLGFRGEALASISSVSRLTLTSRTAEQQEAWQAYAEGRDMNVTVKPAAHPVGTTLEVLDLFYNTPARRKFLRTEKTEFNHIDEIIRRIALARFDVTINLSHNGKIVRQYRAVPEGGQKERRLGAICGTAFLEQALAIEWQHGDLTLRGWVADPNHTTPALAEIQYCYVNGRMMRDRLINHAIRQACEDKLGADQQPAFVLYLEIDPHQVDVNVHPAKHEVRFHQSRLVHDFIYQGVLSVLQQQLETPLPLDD

[3] = target: the molecule itself; assay: SEC; Superose 12 10/30, 20 mM Tris-HCl pH 7.9, 150 mM KCl, 5 mM MgCl2, 1 mM DTT, room temperature; 1 mg/ml PaNTD or 2 mg/ml EcNTD (legend: 22 µM) without nucleotide, with ADP or with ATP; calibrated with BSA 45 and 66 kDa

Nc1ncnc2c1ncn2[C@@H]1O[C@H](COP(=O)(O)OP(=O)(O)OP(=O)(O)O)[C@@H](O)[C@H]1O [ATP]
size-exclusion chromatography, nucleotide-induced dimerization [1]: No major differences were observed among the elution pattern of ADP or ATP bound PaNTD

Nc1ncnc2c1ncn2[C@@H]1O[C@H](COP(=O)(O)OP(=O)(O)NP(=O)(O)O)[C@@H](O)[C@H]1O [AMPPNP]
DSS chemical cross-linking, nucleotide-induced dimerization, SDS-PAGE [2]: EcNTD dimers were only observed in presence of AMPPNP (Figure S5)

Nc1ncnc2c1ncn2[C@@H]1O[C@H](COP(=O)(O)OP(=O)(O)O)[C@@H](O)[C@H]1O [ADP]
size-exclusion chromatography, nucleotide-induced dimerization [1]: PaNTD binding to ADP displaced monomer-dimer equilibrium as judged by size-exclusion chromatography

B1: Pseudomonas aeruginosa MutL N-terminal domain (PaNTD, amino acids 1-339), His6-tagged (domain or fragment, UniProt Q9HUL8 1-339, looked up)
chain: T1 sequence (Q9HUL8 1-339)
notes: MutL of Pseudomonas aeruginosa, N-terminal ATPase domain, residues 1-339 of PaMutL, amplified from genomic DNA; monomeric MW 37.7 kDa; The pET-15b vector should add an N-terminal His6 tag with a thrombin site (surmised, as is cloning through NdeI); no cleavage of the tag is described; also called His6-PaNTD; His-tag PaNTD
dimer share of peak area [3]: ~0.2 share of the dimer peak (monomer 0.8) | stoichiometry N [3]: 2
